# Laboratory results: patent publication US9085642B2, “Peptide inhibiting rankl-rank interaction and the use thereof” (RESEARCH & BUSINESS FOUNDATION SUNGKYUNKWAN UNIVERSITY, priority 2013, dated 2015)
# “Also recorded” adds a separate entry of the source. Bridge positions count the residues as written; N and C are the ends. Ends that are not written are not given here.
# System: osteoclast precursors
# Assay: Osteoclast differentiation by RANKL, TRAP assay and count of TRAP-positive multinucleated cells
# Type: cell-based, rat
# Conditions: RANKL-induced differentiation, peptides treated by concentrations, TRAP assay, FIGS. 6B and 7
# Protocol: That is, osteoclast precursors of rats were extracted from tibia and the femoral region of 5 to 8-week male rats, and purified. The osteoclast precursors were cultured in α-MEM containing 30 ng/ml of M-CSF and 10% FBS in 96-well plates (1×10^5/ml, 200 μl/well). The cells were cultured at 37° C. in a wet atmosphere containing 5% CO2. Differentiation of the osteoclast precursors were measured by a value of tartrate-resistant acid phosphatase (TRAP) activity in vitro. The TRAP staining assay was performed using a matrix Naphthol AS phosphate in 100 mM sodium acetate (pH 5.2). TRAP-positive multinucleated cells were calculated as osteoclast-like multinucleated cells using a microscope, and the assay described above were repeated three times to obtain statistical data.
# In the condition of differentiating osteoclasts by the RANKL, 5 peptides (L3-3, L3-3S, L3-3N, L3-3A, and L3-3B) manufactured in Example 5 were treated by concentrations to observe a degree of inhibition, and the results are shown in FIGS. 6 and 7.
substance,measurement,value
Ser-Asp-Cys-Glu-Cys-Ser-Arg-Arg (SDCECSRR; disulfide 3-5) [L3-3B],inhibitory effect on osteoclast differentiation,better effects than conventionally disclosed peptides (L3-3 and L3-3S); also recorded: extraordinarily higher inhibitory effect than L3-3A
